This is an account of results in ChEMBL document CHEMBL5465560, “Selectivity Literature for EUbOPEN Chemogenomic Library” (2024).

The target of assay [1] is Tyrosine-protein kinase Yes (Homo sapiens) (UniProt P07947). Description: Selectivity interaction (SelectScreen profiling (Invitrogen)) EUB0000607a YES1. To be noted: at 2 µM.
Assay [2] concerns the target T1, MAP kinase-activated protein kinase 5 (Homo sapiens) (UniProt Q8IW41).
T1 sequence (whole entry): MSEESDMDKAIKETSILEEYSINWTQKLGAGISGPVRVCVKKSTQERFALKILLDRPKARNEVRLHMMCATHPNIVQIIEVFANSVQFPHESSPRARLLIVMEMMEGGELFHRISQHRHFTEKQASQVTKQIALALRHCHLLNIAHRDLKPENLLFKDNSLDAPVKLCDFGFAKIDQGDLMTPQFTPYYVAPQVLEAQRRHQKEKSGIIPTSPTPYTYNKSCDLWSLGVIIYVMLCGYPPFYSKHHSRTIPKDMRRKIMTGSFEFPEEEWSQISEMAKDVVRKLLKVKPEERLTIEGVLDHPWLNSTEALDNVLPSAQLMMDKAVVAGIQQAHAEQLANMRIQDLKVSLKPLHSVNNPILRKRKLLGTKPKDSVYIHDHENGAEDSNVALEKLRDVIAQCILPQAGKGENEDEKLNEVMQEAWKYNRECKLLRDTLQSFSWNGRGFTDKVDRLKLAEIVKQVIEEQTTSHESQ
The assay can be described thus: Selectivity interaction (SelectScreen profiling (Invitrogen)) EUB0000607a MAPKAPK5. To be noted: at 2 µM.

For assay [3], the target named is Serine/threonine-protein kinase B-raf (Homo sapiens) (UniProt P15056). Description: (§1) Selectivity interaction (KinomeScan (DiscoverX)) EUB0000666a BRAF. To be noted: at 10 µM.
Assay [4] deals with Serine/threonine-protein kinase B-raf (Homo sapiens), P15056 [V600E]. The description is as §1. To be noted: at 10 µM.
For assay [5], the target named is T2, Rhodopsin kinase GRK1 (Homo sapiens) (UniProt Q15835).
T2 sequence (whole entry): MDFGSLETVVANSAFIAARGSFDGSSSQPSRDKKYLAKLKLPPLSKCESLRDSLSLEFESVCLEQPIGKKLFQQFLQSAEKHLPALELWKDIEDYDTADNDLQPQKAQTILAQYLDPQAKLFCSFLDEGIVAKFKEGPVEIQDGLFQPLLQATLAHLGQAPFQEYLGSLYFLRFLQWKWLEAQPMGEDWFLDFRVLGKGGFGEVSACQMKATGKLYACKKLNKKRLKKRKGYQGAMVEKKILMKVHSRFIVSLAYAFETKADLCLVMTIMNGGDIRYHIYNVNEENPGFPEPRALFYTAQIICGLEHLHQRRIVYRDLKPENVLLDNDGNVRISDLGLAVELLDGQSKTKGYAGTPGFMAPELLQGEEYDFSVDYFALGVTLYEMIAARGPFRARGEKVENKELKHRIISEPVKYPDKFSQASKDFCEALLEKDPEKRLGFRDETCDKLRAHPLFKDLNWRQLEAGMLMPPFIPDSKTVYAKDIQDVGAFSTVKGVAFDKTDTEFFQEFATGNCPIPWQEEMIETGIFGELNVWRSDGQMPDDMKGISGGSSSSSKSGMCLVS
The assay can be described thus: Selectivity interaction (KinomeScan (DiscoverX)) EUB0000666a GRK1. To be noted: at 10 µM.

Assay [6] deals with Cyclin-dependent kinase 5 (Homo sapiens, UniProt Q00535). Description: Selectivity interaction (KinomeScan (DiscoverX)) EUB0000229b CDK5. To be noted: at 10 µM.
The target of assay [7] is Calcium/calmodulin-dependent protein kinase type II subunit beta (Homo sapiens) (UniProt Q13554). Description: Selectivity interaction (KinomeScan (DiscoverX)) EUB0001079a CAMK2B. To be noted: at 1 µM.
In assay [8] the target is RAC-gamma serine/threonine-protein kinase (Homo sapiens, UniProt Q9Y243). Description: Selectivity interaction (KinomeScan (DiscoverX)) EUB0001079a AKT3. To be noted: at 1 µM.
The target of assay [9] is T3, Myosin light chain kinase, smooth muscle (Homo sapiens, UniProt Q15746). The assay can be described thus: Selectivity interaction (ActivX KiNativ screen (ex vivo kinase selectivity in human PBMCs)) EUB0001619a MYLK. The class given is cell-based. To be noted: PBMC, at 1 µM.
The target of assay [10] is T3, Myosin light chain kinase, smooth muscle. The assay can be described thus: Selectivity interaction (Kinase panel (Invitrogen, enzymatic assay)) EUB0000162b MYLK.
Assay [11] concerns the target Cyclin-dependent kinase 4 (Homo sapiens, UniProt P11802). The assay can be described thus: Selectivity interaction (ActivX KiNativ screen (kinase selectivity in THP-1 cell lysates)) EUB0000639a CDK4. The class given is subcellular. To be noted: lysate.
Assay [12] has as its target Protein-tyrosine kinase 2-beta (Homo sapiens) (UniProt Q14289). To be noted: at 10 µM.
The target of assay [13] is Tyrosine-protein kinase JAK2 (Homo sapiens, UniProt O60674). The assay can be described thus: Selectivity interaction (KinomeScan (DiscoverX)) EUB0001049a JAK2. To be noted: at 1 µM.
Assay [14] deals with MAP kinase-interacting serine/threonine-protein kinase 2 (Homo sapiens, UniProt Q9HBH9). The assay can be described thus: Selectivity interaction (KinomeScan (DiscoverX)) EUB0001049a MKNK2. To be noted: at 1 µM.
Assay [15] deals with Ribosomal protein S6 kinase beta-2 (Homo sapiens) (UniProt Q9UBS0). The assay can be described thus: Selectivity interaction (ProQinase) EUB0000171b RPS6KB2.
Assay [16] concerns the target T4, Protein kinase C zeta type (Homo sapiens) (UniProt Q05513).
T4 sequence (whole entry): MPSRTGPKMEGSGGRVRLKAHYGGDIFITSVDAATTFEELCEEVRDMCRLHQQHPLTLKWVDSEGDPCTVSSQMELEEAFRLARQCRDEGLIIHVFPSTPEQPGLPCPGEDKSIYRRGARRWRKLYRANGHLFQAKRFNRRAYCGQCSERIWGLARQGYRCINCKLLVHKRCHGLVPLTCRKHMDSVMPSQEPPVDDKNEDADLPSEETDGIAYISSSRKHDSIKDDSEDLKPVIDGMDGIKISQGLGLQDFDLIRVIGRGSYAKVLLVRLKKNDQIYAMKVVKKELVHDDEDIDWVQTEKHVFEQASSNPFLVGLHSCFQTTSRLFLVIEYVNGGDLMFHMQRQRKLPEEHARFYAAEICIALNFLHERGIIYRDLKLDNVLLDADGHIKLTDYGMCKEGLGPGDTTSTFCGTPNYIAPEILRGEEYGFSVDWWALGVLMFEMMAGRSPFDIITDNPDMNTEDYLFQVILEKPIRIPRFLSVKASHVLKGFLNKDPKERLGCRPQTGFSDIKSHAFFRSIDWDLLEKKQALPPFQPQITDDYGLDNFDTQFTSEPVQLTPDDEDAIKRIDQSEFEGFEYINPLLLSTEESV
The assay can be described thus: Selectivity interaction (ProQinase) EUB0000171b PRKCZ. To be noted: at 5 µM.

Assay [17] addresses Fibroblast growth factor receptor 3 (Homo sapiens, UniProt P22607). Description: (§2) Selectivity interaction (KinomeScan (DiscoverX)) EUB0000045b FGFR3.
The subject of assay [18] is Fibroblast growth factor receptor 3 (Homo sapiens), P22607 [G697C]. The assay is described as §2.
In assay [19] the target is Cyclin-dependent kinase-like 3 (Homo sapiens) (UniProt Q8IVW4). Description: Selectivity interaction (KinomeScan (DiscoverX)) EUB0000618a CDKL3. To be noted: at 10 µM.

Chain of Cyclin-dependent kinase 4 (P11802 whole entry): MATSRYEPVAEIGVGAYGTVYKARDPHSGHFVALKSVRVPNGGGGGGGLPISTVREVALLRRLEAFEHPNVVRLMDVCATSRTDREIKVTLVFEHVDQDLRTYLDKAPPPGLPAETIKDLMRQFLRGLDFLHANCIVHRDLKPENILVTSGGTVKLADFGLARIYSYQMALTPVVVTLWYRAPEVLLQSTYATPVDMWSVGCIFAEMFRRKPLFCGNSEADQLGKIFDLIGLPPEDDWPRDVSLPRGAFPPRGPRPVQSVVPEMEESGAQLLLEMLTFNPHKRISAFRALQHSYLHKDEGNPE
Chain of Ribosomal protein S6 kinase beta-2 (Homo sapiens) (Q9UBS0 whole entry): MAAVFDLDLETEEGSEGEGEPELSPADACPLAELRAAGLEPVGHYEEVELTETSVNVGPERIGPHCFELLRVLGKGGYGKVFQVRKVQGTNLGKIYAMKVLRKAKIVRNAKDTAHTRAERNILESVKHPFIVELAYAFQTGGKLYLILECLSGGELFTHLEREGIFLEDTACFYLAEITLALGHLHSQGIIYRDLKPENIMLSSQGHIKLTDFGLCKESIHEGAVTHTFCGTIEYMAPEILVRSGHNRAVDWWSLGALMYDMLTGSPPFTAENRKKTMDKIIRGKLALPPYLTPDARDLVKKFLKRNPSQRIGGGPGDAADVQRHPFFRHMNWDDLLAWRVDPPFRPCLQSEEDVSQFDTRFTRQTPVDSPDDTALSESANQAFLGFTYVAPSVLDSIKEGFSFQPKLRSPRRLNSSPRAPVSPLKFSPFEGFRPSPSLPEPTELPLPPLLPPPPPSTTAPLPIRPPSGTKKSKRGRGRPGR
T3 sequence (Q15746 whole entry): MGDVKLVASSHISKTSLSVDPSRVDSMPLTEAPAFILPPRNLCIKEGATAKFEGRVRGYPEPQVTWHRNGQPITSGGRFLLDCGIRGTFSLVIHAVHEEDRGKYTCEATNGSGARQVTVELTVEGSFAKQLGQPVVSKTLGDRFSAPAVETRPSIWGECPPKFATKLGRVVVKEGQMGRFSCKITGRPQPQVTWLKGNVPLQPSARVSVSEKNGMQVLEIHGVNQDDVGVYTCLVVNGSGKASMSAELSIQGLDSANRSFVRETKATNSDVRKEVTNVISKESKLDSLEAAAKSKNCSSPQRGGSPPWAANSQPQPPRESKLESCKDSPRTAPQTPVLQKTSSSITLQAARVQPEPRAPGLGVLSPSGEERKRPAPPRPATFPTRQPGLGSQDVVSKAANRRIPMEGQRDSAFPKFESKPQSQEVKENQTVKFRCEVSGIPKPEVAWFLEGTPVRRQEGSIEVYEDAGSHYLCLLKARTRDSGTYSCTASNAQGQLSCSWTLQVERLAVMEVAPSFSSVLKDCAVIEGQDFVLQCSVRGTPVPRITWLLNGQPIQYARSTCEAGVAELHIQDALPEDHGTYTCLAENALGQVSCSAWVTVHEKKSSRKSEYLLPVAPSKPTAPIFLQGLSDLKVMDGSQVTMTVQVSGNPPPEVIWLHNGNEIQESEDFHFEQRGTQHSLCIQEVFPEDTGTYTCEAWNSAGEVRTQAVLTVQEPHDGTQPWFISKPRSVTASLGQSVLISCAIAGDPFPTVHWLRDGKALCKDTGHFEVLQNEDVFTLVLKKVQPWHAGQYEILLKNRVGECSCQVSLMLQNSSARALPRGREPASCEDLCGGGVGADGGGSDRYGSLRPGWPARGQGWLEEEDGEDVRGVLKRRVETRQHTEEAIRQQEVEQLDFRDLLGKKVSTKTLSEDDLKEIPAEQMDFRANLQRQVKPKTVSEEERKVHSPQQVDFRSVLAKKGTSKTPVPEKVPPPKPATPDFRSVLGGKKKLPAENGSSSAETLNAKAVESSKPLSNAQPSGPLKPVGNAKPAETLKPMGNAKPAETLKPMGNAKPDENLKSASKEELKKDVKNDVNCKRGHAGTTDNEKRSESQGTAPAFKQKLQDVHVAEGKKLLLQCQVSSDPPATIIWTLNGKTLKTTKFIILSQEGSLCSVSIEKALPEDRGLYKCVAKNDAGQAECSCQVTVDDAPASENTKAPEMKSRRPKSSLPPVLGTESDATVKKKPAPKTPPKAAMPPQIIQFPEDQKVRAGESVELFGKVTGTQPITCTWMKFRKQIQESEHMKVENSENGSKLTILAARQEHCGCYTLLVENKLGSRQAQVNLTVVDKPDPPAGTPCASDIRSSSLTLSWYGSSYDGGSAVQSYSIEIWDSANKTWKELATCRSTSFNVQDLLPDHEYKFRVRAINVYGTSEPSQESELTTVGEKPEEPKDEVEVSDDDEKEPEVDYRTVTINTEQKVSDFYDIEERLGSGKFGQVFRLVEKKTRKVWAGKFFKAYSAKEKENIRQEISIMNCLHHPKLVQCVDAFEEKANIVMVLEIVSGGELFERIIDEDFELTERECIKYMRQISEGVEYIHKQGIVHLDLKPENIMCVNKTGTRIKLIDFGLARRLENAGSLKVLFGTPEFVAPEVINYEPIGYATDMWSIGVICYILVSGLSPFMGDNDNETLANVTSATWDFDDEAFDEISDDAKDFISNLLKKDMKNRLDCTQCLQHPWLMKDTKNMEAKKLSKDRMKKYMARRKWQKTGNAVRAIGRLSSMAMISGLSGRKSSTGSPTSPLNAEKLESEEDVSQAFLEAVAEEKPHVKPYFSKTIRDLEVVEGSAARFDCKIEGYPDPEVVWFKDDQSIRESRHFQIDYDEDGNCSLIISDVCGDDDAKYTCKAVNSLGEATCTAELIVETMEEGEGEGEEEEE
Chain of Fibroblast growth factor receptor 3 (Homo sapiens), P22607 [G697C] (P22607 whole entry G697C): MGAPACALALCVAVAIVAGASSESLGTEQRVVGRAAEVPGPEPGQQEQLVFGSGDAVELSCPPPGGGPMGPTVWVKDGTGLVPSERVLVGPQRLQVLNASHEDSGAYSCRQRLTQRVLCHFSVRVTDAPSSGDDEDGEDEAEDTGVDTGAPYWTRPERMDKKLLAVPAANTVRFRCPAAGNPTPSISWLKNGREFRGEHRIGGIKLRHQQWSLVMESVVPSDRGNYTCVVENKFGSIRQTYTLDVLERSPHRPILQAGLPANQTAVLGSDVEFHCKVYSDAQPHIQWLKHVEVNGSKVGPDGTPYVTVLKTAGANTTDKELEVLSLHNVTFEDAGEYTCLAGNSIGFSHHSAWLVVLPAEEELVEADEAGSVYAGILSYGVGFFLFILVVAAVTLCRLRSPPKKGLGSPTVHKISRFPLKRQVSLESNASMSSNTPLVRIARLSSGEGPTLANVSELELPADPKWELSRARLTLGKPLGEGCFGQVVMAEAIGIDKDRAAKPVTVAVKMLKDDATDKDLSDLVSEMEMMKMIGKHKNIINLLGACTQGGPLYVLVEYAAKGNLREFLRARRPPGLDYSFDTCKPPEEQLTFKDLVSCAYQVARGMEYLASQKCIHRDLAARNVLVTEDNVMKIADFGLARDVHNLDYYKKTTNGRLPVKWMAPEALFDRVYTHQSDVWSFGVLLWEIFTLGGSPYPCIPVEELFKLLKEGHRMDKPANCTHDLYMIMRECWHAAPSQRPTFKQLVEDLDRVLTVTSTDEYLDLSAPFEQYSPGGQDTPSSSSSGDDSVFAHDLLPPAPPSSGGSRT
Chain of Fibroblast growth factor receptor 3 (P22607 23-806 limits assumed): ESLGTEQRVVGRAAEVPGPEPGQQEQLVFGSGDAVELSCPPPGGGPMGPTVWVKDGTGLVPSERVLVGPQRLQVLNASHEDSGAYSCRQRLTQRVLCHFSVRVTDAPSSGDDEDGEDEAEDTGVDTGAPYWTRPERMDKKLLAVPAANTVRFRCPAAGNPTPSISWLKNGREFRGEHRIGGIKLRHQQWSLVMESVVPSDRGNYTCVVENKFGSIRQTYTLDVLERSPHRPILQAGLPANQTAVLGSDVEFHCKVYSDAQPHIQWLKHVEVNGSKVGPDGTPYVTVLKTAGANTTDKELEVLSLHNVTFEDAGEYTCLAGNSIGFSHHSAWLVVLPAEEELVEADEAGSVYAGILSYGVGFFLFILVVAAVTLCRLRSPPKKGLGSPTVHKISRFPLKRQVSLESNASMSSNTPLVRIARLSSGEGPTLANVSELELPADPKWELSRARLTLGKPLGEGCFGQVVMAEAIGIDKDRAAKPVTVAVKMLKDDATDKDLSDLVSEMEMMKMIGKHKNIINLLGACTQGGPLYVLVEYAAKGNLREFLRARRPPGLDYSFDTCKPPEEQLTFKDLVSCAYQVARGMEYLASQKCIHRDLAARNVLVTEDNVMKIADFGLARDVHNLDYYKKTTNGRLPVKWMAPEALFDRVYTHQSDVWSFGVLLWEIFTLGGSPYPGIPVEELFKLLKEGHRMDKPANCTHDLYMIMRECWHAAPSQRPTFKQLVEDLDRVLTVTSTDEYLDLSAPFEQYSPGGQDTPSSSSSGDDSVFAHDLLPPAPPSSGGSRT
Chain of Serine/threonine-protein kinase B-raf (Homo sapiens), P15056 [V600E] (P15056 whole entry V600E): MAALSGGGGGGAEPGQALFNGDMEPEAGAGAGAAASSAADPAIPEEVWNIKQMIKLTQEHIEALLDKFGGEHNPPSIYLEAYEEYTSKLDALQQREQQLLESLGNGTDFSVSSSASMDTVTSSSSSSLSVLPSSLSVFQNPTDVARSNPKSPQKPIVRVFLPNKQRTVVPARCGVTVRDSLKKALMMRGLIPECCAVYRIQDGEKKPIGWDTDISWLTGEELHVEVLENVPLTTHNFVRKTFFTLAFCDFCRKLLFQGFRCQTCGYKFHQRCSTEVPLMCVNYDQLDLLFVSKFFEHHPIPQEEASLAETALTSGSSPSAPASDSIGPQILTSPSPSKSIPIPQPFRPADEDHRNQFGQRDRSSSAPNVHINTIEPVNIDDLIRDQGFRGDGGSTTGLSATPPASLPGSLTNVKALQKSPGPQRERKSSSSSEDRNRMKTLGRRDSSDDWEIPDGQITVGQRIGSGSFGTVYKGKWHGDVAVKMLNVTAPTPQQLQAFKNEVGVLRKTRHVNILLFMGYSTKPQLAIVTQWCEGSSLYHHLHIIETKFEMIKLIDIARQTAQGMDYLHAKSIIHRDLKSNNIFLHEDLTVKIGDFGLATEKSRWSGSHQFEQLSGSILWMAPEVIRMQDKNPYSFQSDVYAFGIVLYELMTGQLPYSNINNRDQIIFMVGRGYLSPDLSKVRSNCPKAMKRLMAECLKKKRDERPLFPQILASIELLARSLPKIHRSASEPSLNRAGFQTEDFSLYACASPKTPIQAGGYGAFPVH
Chain of Serine/threonine-protein kinase B-raf (Homo sapiens) (P15056 whole entry): as the sequence (P15056 whole entry V600E) above, with E600V counted along it

Take `CNC(=O)Nc1ccc(-c2nc(N3CC4CCC(C3)O4)c3cnn(C4CCC5(CC4)OCCO5)c3n2)cc1`: the % of inhibition was 2% in [1] and 5% in assay [2].
`O=C(NOC[C@H](O)CO)c1ccc(F)c(F)c1Nc1ccc(I)cc1F`: the % of control in assay [3] came out at 98%; in [4] it was 100%; in assay [5] it was 100%.
In turn, `COc1cc(N(C)c2ccnc3ccc(C(F)(F)F)cc23)cc(OC)c1OC` gave a % binding in assay [6] of 97%.
For the molecule `Nc1cnc(N2CCc3cc(S(=O)(=O)Nc4c(F)cc(Cl)cc4F)cc(N4CCCC4=O)c32)nc1` [TP-020n], the % of control in assay [7] stood at 100%; in assay [8] it was 94%.
For the molecule `N#Cc1cccc(-c2c[nH]c3ncnc(N4CCOCC4)c23)c1`, in assay [9], the % of inhibition worked out at 13%.
For the molecule `CN(C)C(=O)Cn1cc(-c2ccc(-c3cncc4ccccc34)cc2)cn1`, the IC50 in assay [10] stood at 531 nM.
In the case of `CC[C@@H]1[C@H](F)C(=O)N[C@@H]1COc1nccc2cc(C(N)=O)c(OC)cc12` [ZIMLOVISERTIB], the % of inhibition in assay [11] (at 0.01 µM) was -1.8%; in assay [11] (at 0.04 µM), -3.4%; in assay [11] (at 0.2 µM), -2.3%; in [11] (at 1 µM), -9.6%; in assay [11] (at 5 µM), -24.4%.
Turning to `CCN(CC)CCCCNc1ncc2cc(-c3cc(OC)cc(OC)c3)c(NC(=O)NC(C)(C)C)nc2n1`, the % of control in assay [12] was 100%.
`COc1cc(Nc2nc(C)cc(-c3cnn4nc(OC)ccc34)n2)cc(C(F)(F)F)c1`: the % of control was 85% in assay [13] and 78% in assay [14].
As for `C=CC(=O)Nc1cccc(C(=O)Nc2ccc(Nc3cc(-c4[nH]c(SC)nc4C)ccn3)cc2)c1`, the % of control turned out to be 87% in assay [15] (at 1 µM), 79% in [15] (at 5 µM) and 68% in assay [16].
Consider `C=CC(=O)Nc1cc(-n2c(=O)ccc3cnc4ccc(-c5ccc(NS(C)(=O)=O)cc5)cc4c32)ccc1C`, for which the % of control in [17] (at 1 µM) was 100%; in assay [17] (at 10 µM), 100%; in assay [18] (at 1 µM), 26%; in assay [18] (at 10 µM), 96%.
In assay [19], `O[C@H]1CC[C@H](Nc2ncc3nc(Nc4c(F)cc(F)cc4F)n([C@H]4CCOC4)c3n2)CC1` yielded a % of control of 86%.

In general, IC50 refers to the concentration that gives 50% inhibition. Low readings indicate greater potency in that assay, high ones weaker potency in that assay.
